In ChEMBL document CHEMBL1134423, “Synthesis and acetylcholinesterase inhibition of 5-desamino huperzine A derivatives” (Bioorg Med Chem Lett, 2001):
pIC50, pKi: −log10 of the molar value.

Tests used:
Acetylcholinesterase [1] = biological target: T1, Acetylcholinesterase (Rattus norvegicus, UniProt P37136); assay: Compound was tested for its ability to inhibit acetylcholinesterase (AChE) in rat brain; format: tissue-based
T1 sequence (P37136 whole entry): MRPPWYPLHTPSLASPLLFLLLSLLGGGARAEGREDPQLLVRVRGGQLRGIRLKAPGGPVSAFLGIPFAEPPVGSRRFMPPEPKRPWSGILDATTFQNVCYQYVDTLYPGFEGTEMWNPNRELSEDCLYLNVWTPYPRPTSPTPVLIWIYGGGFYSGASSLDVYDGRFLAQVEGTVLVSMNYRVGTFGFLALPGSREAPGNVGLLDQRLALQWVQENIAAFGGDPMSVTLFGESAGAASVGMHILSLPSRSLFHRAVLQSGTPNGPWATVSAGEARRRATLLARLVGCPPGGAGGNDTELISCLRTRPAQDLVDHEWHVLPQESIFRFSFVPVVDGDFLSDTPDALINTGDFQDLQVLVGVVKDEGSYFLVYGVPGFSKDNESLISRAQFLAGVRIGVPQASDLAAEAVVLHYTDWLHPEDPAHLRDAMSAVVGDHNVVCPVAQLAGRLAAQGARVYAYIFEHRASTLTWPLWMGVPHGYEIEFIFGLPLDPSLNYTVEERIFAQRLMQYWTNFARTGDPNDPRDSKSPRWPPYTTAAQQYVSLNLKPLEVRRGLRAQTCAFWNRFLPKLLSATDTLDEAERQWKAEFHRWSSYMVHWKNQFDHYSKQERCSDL

Acetylcholinesterase [2] = biological target: T1, Acetylcholinesterase

Row | SMILES | pIC50 (Acetylcholinesterase [1]) | pKi (Acetylcholinesterase [1]) | pKi (Acetylcholinesterase [2])
1 | C/C=C1\C2C=C(C)CC1c1ccc(O)nc1C2 (configuration not stated) | 4.89 | 5.70 | 
2 | C/C=C1\[C@H]2C=C(C)C[C@]1(N)c1ccc(=O)[nH]c1C2 [HUPERZINE A] |  |  | 7.62
3 | CC1=CC2Cc3nc(O)ccc3C(C1)C2=O (configuration not stated) | < 3.30 | < 3.30 | 
4 | C/C=C1/C2C=C(C)CC1c1ccc(=O)[nH]c1C2 (configuration not stated) | 4.26 | 4.91 | 
